Reference: ChEMBL document CHEMBL5465560, “Selectivity Literature for EUbOPEN Chemogenomic Library” (2024)

Tests used:
[1] = molecular target: Insulin-like growth factor 1 receptor (Homo sapiens, UniProt P08069); conditions: at 10 µM
[2] = molecular target: Ribosomal protein S6 kinase alpha-6 (Homo sapiens, UniProt Q9UK32); assay: Selectivity interaction (Kinase screening (Nanosyn)) EUB0000604a RPS6KA6
[3] = molecular target: Calcium/calmodulin-dependent protein kinase kinase 1 (Homo sapiens) (UniProt Q8N5S9); assay: Selectivity interaction (Ambit KINOMEscan and KiNATiv profiling in Jurkat cells) EUB0000090b CAMKK1; format: cell-based; conditions: at 1 µM
Chain of Calcium/calmodulin-dependent protein kinase kinase 1 (Homo sapiens) (Q8N5S9 whole entry, looked up): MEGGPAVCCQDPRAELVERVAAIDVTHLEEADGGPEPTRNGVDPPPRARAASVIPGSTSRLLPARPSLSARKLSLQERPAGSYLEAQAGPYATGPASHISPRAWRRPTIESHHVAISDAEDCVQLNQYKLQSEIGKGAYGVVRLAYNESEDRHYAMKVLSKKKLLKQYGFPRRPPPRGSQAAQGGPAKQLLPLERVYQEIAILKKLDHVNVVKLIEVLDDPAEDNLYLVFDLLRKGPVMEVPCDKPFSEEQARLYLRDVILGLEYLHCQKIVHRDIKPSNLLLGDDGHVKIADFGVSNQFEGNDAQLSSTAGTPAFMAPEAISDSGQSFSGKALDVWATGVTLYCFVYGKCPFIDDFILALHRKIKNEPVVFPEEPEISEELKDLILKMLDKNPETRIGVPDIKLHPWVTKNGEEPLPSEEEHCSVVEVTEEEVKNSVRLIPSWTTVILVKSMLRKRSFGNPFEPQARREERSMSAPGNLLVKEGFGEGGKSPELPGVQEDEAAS

[4] = molecular target: Serine/threonine-protein kinase RIO2 (Homo sapiens) (UniProt Q9BVS4); assay: Selectivity interaction (KinomeScan (DiscoverX)) EUB0001550a RIOK2; conditions: at 1 µM
Chain of Serine/threonine-protein kinase RIO2 (Homo sapiens) (Q9BVS4 whole entry, looked up): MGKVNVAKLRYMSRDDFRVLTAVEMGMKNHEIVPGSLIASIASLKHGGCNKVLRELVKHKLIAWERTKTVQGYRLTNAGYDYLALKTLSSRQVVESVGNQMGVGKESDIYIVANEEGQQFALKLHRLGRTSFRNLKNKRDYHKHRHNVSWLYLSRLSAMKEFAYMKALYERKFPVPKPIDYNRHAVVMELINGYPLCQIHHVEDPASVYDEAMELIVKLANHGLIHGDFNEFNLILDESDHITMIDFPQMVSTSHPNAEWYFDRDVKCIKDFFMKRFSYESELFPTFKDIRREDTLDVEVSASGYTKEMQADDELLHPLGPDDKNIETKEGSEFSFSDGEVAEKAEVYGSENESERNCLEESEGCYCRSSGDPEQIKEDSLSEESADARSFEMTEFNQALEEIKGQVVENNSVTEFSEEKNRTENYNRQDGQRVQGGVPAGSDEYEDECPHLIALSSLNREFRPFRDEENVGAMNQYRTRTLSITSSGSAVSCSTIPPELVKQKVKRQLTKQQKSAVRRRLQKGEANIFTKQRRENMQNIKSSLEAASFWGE

[5] = molecular target: Rho-associated protein kinase 2 (Homo sapiens, UniProt O75116); assay: Selectivity interaction (Enzymatic assay) EUB0001199aCl ROCK2
[6] = molecular target: SRSF protein kinase 3 (Homo sapiens) (UniProt Q9UPE1); assay: Selectivity interaction (Kinase panel (Z-LYTE Assay)) EUB0001632a SRPK3; conditions: at 10 µM
Chain of SRSF protein kinase 3 (Homo sapiens) (Q9UPE1 whole entry): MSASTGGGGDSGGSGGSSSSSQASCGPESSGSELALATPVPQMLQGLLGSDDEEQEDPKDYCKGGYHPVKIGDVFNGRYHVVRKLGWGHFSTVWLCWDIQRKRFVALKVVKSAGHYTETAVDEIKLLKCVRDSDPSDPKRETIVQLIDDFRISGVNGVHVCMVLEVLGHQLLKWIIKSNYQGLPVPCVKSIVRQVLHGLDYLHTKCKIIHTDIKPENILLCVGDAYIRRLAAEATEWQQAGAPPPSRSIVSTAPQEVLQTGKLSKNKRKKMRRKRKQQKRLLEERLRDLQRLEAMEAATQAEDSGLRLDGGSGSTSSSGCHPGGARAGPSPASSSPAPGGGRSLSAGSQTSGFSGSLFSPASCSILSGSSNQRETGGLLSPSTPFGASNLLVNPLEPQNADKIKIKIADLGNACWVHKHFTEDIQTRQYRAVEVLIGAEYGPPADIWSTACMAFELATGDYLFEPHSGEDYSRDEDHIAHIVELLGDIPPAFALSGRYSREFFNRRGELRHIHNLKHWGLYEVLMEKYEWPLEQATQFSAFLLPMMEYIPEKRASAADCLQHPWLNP

[7] = molecular target: T1, Dual specificity tyrosine-phosphorylation-regulated kinase 2 (Homo sapiens) (UniProt Q92630); assay: Selectivity interaction (KinomeScan (DiscoverX)) EUB0001079a DYRK2; conditions: at 1 µM
T1 sequence (whole entry): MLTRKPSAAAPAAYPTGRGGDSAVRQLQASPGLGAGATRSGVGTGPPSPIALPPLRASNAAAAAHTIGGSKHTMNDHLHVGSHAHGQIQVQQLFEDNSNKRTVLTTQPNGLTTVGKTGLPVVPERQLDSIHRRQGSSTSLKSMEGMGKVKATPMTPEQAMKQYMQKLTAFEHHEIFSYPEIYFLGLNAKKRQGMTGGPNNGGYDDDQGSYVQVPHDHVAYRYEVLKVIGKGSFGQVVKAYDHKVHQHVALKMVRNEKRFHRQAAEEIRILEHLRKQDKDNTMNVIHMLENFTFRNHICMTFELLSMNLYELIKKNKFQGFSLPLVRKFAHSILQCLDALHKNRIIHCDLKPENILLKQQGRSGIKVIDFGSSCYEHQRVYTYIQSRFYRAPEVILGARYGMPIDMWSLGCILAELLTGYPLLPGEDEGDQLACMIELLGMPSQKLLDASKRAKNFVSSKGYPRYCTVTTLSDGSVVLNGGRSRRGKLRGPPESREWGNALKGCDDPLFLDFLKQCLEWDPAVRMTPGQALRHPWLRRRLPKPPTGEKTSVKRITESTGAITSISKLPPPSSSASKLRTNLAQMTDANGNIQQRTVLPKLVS

[8] = molecular target: Homeodomain-interacting protein kinase 1 (Homo sapiens, UniProt Q86Z02); assay: Selectivity interaction (KinomeScan (DiscoverX)) EUB0001079a HIPK1; conditions: at 1 µM
[9] = molecular target: Serine/threonine-protein kinase 33 (Homo sapiens) (UniProt Q9BYT3); assay: Selectivity interaction (KinomeScan (DiscoverX)) EUB0000655a STK33; conditions: at 10 µM
[10] = molecular target: T2, Mitogen-activated protein kinase kinase kinase 19 (Homo sapiens) (UniProt Q56UN5); assay: Selectivity interaction (KinomeScan (DiscoverX)) EUB0001619a MAP3K19; conditions: at 1 µM
T2 sequence (whole entry): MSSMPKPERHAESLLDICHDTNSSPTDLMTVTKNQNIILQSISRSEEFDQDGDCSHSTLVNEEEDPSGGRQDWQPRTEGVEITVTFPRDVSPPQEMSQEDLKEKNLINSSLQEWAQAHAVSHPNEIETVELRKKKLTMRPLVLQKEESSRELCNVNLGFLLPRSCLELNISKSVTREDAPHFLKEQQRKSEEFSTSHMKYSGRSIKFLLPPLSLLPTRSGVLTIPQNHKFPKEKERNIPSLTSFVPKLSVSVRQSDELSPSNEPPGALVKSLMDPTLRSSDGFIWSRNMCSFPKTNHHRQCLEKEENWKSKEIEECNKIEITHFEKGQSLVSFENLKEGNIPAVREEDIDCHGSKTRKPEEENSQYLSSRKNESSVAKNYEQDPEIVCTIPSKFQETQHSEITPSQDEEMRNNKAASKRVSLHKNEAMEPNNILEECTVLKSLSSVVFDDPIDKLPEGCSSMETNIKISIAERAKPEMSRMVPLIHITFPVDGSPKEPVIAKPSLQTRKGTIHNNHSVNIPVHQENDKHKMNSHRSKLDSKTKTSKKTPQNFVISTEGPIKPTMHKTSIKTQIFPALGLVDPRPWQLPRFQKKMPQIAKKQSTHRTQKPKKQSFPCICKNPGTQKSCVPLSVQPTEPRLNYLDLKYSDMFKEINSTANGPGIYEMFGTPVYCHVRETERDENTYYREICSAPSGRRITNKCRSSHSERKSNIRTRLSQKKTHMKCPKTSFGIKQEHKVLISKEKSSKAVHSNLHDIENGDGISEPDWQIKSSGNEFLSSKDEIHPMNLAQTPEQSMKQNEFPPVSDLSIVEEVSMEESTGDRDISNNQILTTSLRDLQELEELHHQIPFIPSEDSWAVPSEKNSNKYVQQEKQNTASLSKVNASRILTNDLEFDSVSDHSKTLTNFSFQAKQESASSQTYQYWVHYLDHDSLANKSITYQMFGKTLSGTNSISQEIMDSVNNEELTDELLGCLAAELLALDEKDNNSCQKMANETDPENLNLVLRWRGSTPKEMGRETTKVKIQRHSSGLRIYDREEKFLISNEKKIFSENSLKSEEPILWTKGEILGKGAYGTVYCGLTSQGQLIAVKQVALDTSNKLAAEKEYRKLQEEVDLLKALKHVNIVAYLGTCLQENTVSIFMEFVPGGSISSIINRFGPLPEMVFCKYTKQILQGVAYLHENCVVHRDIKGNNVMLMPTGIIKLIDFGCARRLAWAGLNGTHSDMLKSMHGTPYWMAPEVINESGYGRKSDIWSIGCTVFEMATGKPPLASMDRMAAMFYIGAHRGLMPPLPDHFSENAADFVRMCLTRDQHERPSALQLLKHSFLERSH

[11] = molecular target: MAP kinase-interacting serine/threonine-protein kinase 1 (Homo sapiens) (UniProt Q9BUB5); assay: Selectivity interaction (KinomeScan (DiscoverX)) EUB0000618a MKNK1; conditions: at 10 µM
Chain of MAP kinase-interacting serine/threonine-protein kinase 1 (Homo sapiens) (Q9BUB5 whole entry, looked up): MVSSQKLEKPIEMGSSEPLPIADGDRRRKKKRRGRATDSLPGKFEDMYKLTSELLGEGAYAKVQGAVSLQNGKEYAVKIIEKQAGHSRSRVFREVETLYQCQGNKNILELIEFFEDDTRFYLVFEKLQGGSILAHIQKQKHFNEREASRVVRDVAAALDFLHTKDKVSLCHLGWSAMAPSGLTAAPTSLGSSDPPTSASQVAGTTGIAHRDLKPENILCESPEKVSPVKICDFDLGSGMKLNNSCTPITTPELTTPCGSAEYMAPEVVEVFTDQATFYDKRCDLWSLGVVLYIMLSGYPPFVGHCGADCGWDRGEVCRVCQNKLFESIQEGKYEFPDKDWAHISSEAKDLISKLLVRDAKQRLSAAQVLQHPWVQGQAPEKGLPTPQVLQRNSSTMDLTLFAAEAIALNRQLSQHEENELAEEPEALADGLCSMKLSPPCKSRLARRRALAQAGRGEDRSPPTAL

[12] = molecular target: [Pyruvate dehydrogenase (acetyl-transferring)] kinase isozyme 1, mitochondrial (Homo sapiens, UniProt Q15118); assay: Selectivity interaction (SelectScreen profiling (Invitrogen)) EUB0000607a PDK1; conditions: at 2 µM
[13] = molecular target: Mitogen-activated protein kinase 3 (Homo sapiens, UniProt P27361); assay: Selectivity interaction (KinomeScan (DiscoverX)) EUB0000666a MAPK3; conditions: at 10 µM
Chain of Mitogen-activated protein kinase 3 (P27361 whole entry): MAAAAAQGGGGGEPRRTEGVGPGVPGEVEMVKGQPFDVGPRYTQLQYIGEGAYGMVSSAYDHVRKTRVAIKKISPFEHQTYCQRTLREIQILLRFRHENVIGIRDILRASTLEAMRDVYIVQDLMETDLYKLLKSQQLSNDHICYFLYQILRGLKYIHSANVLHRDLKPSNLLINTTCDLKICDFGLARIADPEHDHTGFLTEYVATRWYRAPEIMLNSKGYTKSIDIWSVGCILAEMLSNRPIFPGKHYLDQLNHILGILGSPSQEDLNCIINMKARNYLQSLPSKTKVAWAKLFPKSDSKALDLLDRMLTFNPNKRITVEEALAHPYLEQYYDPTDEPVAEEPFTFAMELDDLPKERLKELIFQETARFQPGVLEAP

[14] = molecular target: Vasopressin V1a receptor (Homo sapiens) (UniProt P37288); assay: Selectivity interaction (Panel of kinases, GPCRs, ion channels and transporters (enzymatic assay)) EUB0000223bCl AVPR1A
Chain of Vasopressin V1a receptor (Homo sapiens) (P37288 whole entry, looked up): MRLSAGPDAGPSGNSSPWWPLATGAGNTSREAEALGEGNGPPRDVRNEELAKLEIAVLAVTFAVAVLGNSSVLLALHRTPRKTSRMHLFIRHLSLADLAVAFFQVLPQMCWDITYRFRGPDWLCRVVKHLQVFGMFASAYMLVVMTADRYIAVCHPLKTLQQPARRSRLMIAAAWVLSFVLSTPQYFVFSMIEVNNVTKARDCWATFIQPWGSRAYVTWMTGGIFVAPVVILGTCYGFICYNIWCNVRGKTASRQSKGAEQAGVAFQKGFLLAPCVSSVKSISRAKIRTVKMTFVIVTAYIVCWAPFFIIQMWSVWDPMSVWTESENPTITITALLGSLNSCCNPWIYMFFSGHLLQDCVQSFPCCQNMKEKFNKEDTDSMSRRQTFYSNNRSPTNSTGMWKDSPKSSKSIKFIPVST

Chain of Ribosomal protein S6 kinase alpha-6 (Q9UK32 whole entry): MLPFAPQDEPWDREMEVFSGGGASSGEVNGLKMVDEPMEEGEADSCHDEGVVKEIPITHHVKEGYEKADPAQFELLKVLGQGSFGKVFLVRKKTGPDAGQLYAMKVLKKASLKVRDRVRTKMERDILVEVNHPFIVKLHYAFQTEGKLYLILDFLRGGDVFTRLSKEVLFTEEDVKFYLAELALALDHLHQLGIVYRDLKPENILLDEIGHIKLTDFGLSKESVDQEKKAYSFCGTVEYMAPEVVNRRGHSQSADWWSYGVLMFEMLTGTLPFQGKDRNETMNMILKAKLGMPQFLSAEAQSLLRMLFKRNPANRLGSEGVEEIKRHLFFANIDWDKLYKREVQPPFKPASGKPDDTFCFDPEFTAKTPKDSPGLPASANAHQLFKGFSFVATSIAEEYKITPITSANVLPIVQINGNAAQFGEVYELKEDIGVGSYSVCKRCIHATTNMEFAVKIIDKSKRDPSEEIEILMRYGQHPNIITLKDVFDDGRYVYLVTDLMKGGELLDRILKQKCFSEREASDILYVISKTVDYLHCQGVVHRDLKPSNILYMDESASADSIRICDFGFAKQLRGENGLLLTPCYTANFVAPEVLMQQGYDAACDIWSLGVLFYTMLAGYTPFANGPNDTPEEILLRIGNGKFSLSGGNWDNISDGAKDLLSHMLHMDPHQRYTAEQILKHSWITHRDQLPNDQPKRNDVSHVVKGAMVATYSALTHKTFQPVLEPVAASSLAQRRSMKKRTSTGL
Chain of Insulin-like growth factor 1 receptor (P08069 31-736 limits assumed): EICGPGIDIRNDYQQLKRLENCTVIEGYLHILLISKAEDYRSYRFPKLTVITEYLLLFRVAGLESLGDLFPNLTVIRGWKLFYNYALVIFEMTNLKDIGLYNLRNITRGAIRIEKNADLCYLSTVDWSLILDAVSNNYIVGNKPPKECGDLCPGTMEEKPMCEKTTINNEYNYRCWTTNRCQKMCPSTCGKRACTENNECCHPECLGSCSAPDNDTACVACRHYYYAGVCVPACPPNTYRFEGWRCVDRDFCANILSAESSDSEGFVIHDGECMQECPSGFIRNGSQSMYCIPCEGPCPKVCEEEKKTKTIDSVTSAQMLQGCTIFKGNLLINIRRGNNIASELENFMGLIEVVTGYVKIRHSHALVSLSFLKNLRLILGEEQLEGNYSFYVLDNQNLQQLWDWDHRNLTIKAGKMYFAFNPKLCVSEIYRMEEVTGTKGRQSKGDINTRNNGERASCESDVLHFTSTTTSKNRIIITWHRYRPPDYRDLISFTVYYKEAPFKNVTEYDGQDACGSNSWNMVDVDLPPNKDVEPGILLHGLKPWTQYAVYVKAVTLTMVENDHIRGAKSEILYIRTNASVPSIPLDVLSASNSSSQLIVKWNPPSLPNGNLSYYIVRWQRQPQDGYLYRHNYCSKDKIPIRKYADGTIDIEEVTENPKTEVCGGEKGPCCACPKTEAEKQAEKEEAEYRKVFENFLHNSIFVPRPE
Chain of Insulin-like growth factor 1 receptor (P08069 741-1367 limits assumed): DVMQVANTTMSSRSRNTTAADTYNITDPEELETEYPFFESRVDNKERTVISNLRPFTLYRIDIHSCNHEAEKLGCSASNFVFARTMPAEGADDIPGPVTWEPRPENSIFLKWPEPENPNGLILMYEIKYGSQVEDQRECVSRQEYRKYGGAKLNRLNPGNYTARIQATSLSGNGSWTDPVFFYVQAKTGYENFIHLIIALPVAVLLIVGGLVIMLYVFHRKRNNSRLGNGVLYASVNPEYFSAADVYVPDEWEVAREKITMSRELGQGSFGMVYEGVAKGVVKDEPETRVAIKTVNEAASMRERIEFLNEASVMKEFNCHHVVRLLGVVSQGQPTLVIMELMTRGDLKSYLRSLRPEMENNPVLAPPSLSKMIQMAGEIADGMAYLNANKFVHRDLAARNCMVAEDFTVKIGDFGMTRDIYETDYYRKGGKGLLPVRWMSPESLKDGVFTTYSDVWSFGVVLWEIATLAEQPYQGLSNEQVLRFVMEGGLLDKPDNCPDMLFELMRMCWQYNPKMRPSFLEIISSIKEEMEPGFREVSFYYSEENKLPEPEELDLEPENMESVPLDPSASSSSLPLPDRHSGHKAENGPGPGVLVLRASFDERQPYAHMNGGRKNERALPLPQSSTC

Cc1cc([C@@H](C)Nc2ccccc2C(=O)O)c2nc(N3CCOCC3)cc(=O)n2c1 [AZD-6482]
% of control [1]: 100%

Cc1cnc(Nc2ccc(F)cc2Cl)nc1-c1c[nH]c(C(=O)N[C@H](CO)c2cccc(Cl)c2)c1
% of inhibition [2]: 11%

CN(C)C/C=C/C(=O)Nc1ccc(C(=O)N2CCCC(Nc3ncc(Cl)c(-c4c[nH]c5ccccc45)n3)C2)cc1 (centres undefined)
% of control [3]: 92%

CN(C)CC#Cc1ccc2[nH]c3c(c2c1)-c1nc(N)ncc1CCC3
% of control [4]: 32%

CN1Cc2nccc(-c3cn(C)nc3-c3ccc(F)cc3)c2C1=O
IC50 [5]: 10.2 µM

Cn1cc(-n2cnc3c(NCc4nc5cc(Cl)c(Cl)cc5[nH]4)nc(N4CCOCC4)nc32)cn1
% of control [6]: -1.05%

Nc1cnc(N2CCc3cc(S(=O)(=O)Nc4c(F)cc(Cl)cc4F)cc(N4CCCC4=O)c32)nc1 [TP-020n]
% of control [7]: 89% | % of control [8]: 91%

CN(C)CCOc1ccc(-c2nc(-c3ccncc3)c(-c3ccc4c(c3)CC/C4=N\O)[nH]2)cc1
% of control [9]: 88%

N#Cc1cccc(-c2c[nH]c3ncnc(N4CCOCC4)c23)c1
% of control [10]: 3.8%

O[C@H]1CC[C@H](Nc2ncc3nc(Nc4c(F)cc(F)cc4F)n([C@H]4CCOC4)c3n2)CC1
% of control [11]: 94%

CNC(=O)Nc1ccc(-c2nc(N3CC4CCC(C3)O4)c3cnn(C4CCC5(CC4)OCCO5)c3n2)cc1
% of inhibition [12]: 3%

O=C(NOC[C@H](O)CO)c1ccc(F)c(F)c1Nc1ccc(I)cc1F
% of control [13]: 86%

COc1cc(C(=O)N2CC[C@@H](O)[C@@H](N)C2)cc2nc(-c3cc4ccccc4n3CC3CC3)n(C)c12
pXC50 [14]: 4.6 M
